Test results as given in patent US5654411A, “Process for preparing 4-deoxyerythromycin derivatives” (Abbott Laboratories, priority 1995, dated 1997).
Converted amounts (≈) assume the structure as drawn. Each block holds one compound with its values, some of them ahead of it.

Key:
[1] = tested on: smooth muscle strips isolated from rabbit small intestine; test: Induction of in vitro rabbit duodenal smooth muscle contraction; conditions: for Relative Potency: relative to erythromycin A = 1.0; for EC50: Oryctolagus cuniculus, rabbit duodenum longitudinal muscle, 37° C., pH 7.5, read-out: pED50 (negative logarithm of the concentration producing half of the maximal contraction) (converted)
Procedure: The compounds of the present invention were tested in vitro for their ability to induce contraction of smooth muscle strips isolated from rabbit small intestine using the following procedure:
Rabbits were sacrificed and 15 cm of duodenum was rapidly removed and placed in ice-cold modified Ringers solution (120 mM sodium chloride, 25 mM sodium bicarbonate, 4.7 mM potassium chloride, 1.25 mM calcium chloride, 1.20 mM magnesium sulfate and 5.6 mM glucose). The longitudinal muscle layer was separated from the circular muscle by blunt dissection and cut into strips of 10×20 mm. Double-folded strips were vertically suspended between two hooks in 10 mL tissue baths with a mechanical preload of 1 g. The upper hook was connected to an […] force transducer, and its displacement was recorded on a Grass polygraph. The tissue baths contained modified Ringers solution at 37° C. and were continuously gassed with 95% oxygen/5% carbon dioxide in order to maintain the pH at 7.5.
After a stabilization period of at least 60 minutes, a contractility dose-response series was performed by adding increasing final concentrations of methacholine (10^-7 M, 10^-6 M and 10^-5 M) in volumes of 100 μL. The bath solutions were replaced at least three times between doses.
After the methacholine dose-response series was completed, a test compound dose response curve was initiated by the same procedure used for the methacholine dose-response series, with at least five concentrations of test compound within the range of 10^-10 M to 10^-4 M. The tissues were washed repeatedly between doses, and the studies were completed by recording the contractile response to 10^-5 M methacholine to ascertain integrity of the muscle preparation. Contractile responses were expressed as percent of maximal contraction. The concentration of test compound which produces half of the maximal contraction (ED50 value) and the negative logarithm of the ED50 value (PED50) were estimated from the dose-response curves.

[2] = tested on: Micrococcus luteus ATCC 9341; test: Antibacterial activity (MIC), agar dilution method; assay type: cell-based; conditions: unit assumed
Procedure: (§1) Compounds of the invention were next tested for antibacterial potency, such activity being regarded as an undesirable side effect if prokinetic therapy. Assays were conducted using methodology well-known in the art (the agar dilution method).

[3] = tested on: Streptococcus pyogenes 2548 INDUC; test: Antibacterial activity (MIC), agar dilution method; assay type: cell-based; conditions: unit assumed
Procedure: as §1

[4] = tested on: Staphylococcus epidermidis 3519; test: Antibacterial activity (MIC), agar dilution method; assay type: cell-based; conditions: unit assumed
Procedure: as §1

[5] = tested on: Staphylococcus aureus CMX 553; test: Antibacterial activity (MIC), agar dilution method; assay type: cell-based; conditions: unit assumed
Procedure: as §1

Escherichia coli H560 = test: Antibacterial activity (MIC), agar dilution method; assay type: cell-based; conditions: unit assumed
Procedure: as §1

[6] = tested on: Pseudomonas aeruginosa K799/61; test: Antibacterial activity (MIC), agar dilution method; assay type: cell-based; conditions: unit assumed
Procedure: as §1

[7] = tested on: Pseudomonas aeruginosa K799/WT; test: Antibacterial activity (MIC), agar dilution method; assay type: cell-based; conditions: unit assumed
Procedure: as §1

[8] = tested on: Pseudomonas aeruginosa A5007; test: Antibacterial activity (MIC), agar dilution method; assay type: cell-based; conditions: unit assumed
Procedure: as §1

Escherichia coli SS = test: Antibacterial activity (MIC), agar dilution method; assay type: cell-based; conditions: unit assumed
Procedure: as §1

[9] = tested on: Pseudomonas aeruginosa BMH10; test: Antibacterial activity (MIC), agar dilution method; assay type: cell-based; conditions: unit assumed
Procedure: as §1

[10] = tested on: Enterobacter aerogenes ATCC 13048; test: Antibacterial activity (MIC), agar dilution method; assay type: cell-based; conditions: unit assumed
Procedure: as §1

Escherichia coli KNK 437 = test: Antibacterial activity (MIC), agar dilution method; assay type: cell-based; conditions: unit assumed
Procedure: as §1

[11] = tested on: Acinetobacter calcoaceticus CMX 669; test: Antibacterial activity (MIC), agar dilution method; assay type: cell-based; conditions: unit assumed
Procedure: as §1

[12] = tested on: Pseudomonas aeruginosa DPHD-5263; test: Antibacterial activity (MIC), agar dilution method; assay type: cell-based; conditions: unit assumed
Procedure: as §1

[13] = tested on: Klebsiella pneumoniae ATCC 8045; test: Antibacterial activity (MIC), agar dilution method; assay type: cell-based; conditions: unit assumed
Procedure: as §1

[14] = tested on: Streptococcus bovis A5169; test: Antibacterial activity (MIC), agar dilution method; assay type: cell-based; conditions: unit assumed
Procedure: as §1

Escherichia coli JUHL = test: Antibacterial activity (MIC), agar dilution method; assay type: cell-based; conditions: unit assumed
Procedure: as §1

[15] = tested on: Enterococcus faecium ATCC 8043; test: Antibacterial activity (MIC), agar dilution method; assay type: cell-based; conditions: unit assumed
Procedure: as §1

[16] = tested on: Streptococcus pyogenes 930 CONST; test: Antibacterial activity (MIC), agar dilution method; assay type: cell-based; conditions: unit assumed
Procedure: as §1

[17] = tested on: Staphylococcus aureus A-5278; test: Antibacterial activity (MIC), agar dilution method; assay type: cell-based; conditions: unit assumed
Procedure: as §1

[18] = tested on: Streptococcus pyogenes EES61; test: Antibacterial activity (MIC), agar dilution method; assay type: cell-based; conditions: unit assumed
Procedure: as §1

[19] = tested on: Streptococcus agalactiae CMX 508; test: Antibacterial activity (MIC), agar dilution method; assay type: cell-based; conditions: unit assumed
Procedure: as §1

[20] = tested on: Staphylococcus aureus 1775; test: Antibacterial activity (MIC), agar dilution method; assay type: cell-based; conditions: unit assumed
Procedure: as §1

[21] = tested on: Pseudomonas aeruginosa DPHD-2862; test: Antibacterial activity (MIC), agar dilution method; assay type: cell-based; conditions: unit assumed
Procedure: as §1

[22] = tested on: Staphylococcus aureus NCTC 10649; test: Antibacterial activity (MIC), agar dilution method; assay type: cell-based; conditions: unit assumed
Procedure: as §1

[23] = tested on: Providencia stuartii CMX 640; test: Antibacterial activity (MIC), agar dilution method; assay type: cell-based; conditions: unit assumed
Procedure: as §1

Escherichia coli DC-2 = test: Antibacterial activity (MIC), agar dilution method; assay type: cell-based; conditions: unit assumed
Procedure: as §1

[24] = tested on: Staphylococcus aureus ATCC 6538P; test: Antibacterial activity (MIC), agar dilution method; assay type: cell-based; conditions: unit assumed
Procedure: as §1

Pseudomonas cepacia 2961 = test: Antibacterial activity (MIC), agar dilution method; assay type: cell-based; conditions: unit assumed
Procedure: as §1

[25] = tested on: Staphylococcus aureus 642A; test: Antibacterial activity (MIC), agar dilution method; assay type: cell-based; conditions: unit assumed
Procedure: as §1

[26] = tested on: Staphylococcus aureus A5177; test: Antibacterial activity (MIC), agar dilution method; assay type: cell-based; conditions: unit assumed
Procedure: as §1

SMILES: CC[C@H]1OC(=O)[C@H](C)[C@@H](O[C@H]2C[C@@](C)(OC)C[C@H](C)O2)[C@H](C)[C@@H](O[C@@H]2O[C@H](C)C[C@H](N(C)CC)[C@H]2O)[C@@]2(C)CC(C)=C(O2)[C@H](C)[C@@H](O)[C@H]1C [Example 7, 8,9-anhydro-4"-deoxy-3'-N-desmethyl-3'-N-ethylerythromycin B-6,9-hemiketal]
Endpoint (pED50) could not be obtained, potency in words ([1]; footnote a of Table 2): extremely high potency
Relative Potency [1]: > 8000
MIC [2]: 12.5 µg/mL (≈ 17.9 µM)
MIC [3]: 50 µg/mL (≈ 71.6 µM)
MIC [4]: 100 µg/mL (≈ 143 µM)
MIC [5]: > 100 µg/mL
MIC (Escherichia coli H560): > 100 µg/mL
MIC [6]: > 100 µg/mL
MIC [7]: > 100 µg/mL
MIC [8]: > 100 µg/mL
MIC (Escherichia coli SS): 100 µg/mL (≈ 143 µM)
MIC [9]: > 100 µg/mL
MIC [10]: > 100 µg/mL
MIC (Escherichia coli KNK 437): > 100 µg/mL
MIC [11]: > 100 µg/mL
MIC [12]: > 100 µg/mL
MIC [13]: > 100 µg/mL
MIC [14]: 50 µg/mL (≈ 71.6 µM)
MIC (Escherichia coli JUHL): > 100 µg/mL
MIC [15]: 50 µg/mL (≈ 71.6 µM)
MIC [16]: > 100 µg/mL
MIC [17]: > 100 µg/mL
MIC [18]: 50 µg/mL (≈ 71.6 µM)
MIC [19]: 50 µg/mL (≈ 71.6 µM)
MIC [20]: > 100 µg/mL
MIC [21]: > 100 µg/mL
MIC [22]: 100 µg/mL (≈ 143 µM)
MIC [23]: > 100 µg/mL
MIC (Escherichia coli DC-2): > 100 µg/mL
MIC [24]: 100 µg/mL (≈ 143 µM)
MIC (Pseudomonas cepacia 2961): > 100 µg/mL
MIC [25]: > 100 µg/mL
MIC [26]: 100 µg/mL (≈ 143 µM)

EC50 [1]: 50.1 nM
SMILES: C#CC[N+](C)(C)[C@H]1C[C@@H](C)O[C@@H](O[C@@H]2[C@@H](C)[C@H](O[C@H]3C[C@@](C)(OC)C[C@H](C)O3)[C@@H](C)C(=O)O[C@H](CC)[C@H](C)[C@H](O)[C@@H](C)C3=C(C)C[C@@]2(C)O3)[C@@H]1O [Example 8, 8,9-anhydro-4"-deoxy-3'-N-propargylerythromycin B-6,9-hemiketal bromide]
Relative Potency [1]: 28

EC50 [1]: 23.4 nM
SMILES: C#CC[N+](C)(C)[C@H]1C[C@@H](C)O[C@@H](O[C@@H]2[C@@H](C)[C@H](O[C@H]3C[C@@](C)(OC)C[C@H](C)O3)[C@@H](C)C(=O)O[C@H](CC)[C@@](C)(O)[C@H](O)[C@@H](C)C3O[C@]2(C)C[C@@H]3C)[C@@H]1O [Example 12, 9-deoxo-4",6-dideoxy-8-epi-6,9-epoxy-3'-N -propargylerythromycin A bromide]
Relative Potency [1]: 60

EC50 [1]: 0.0055 nM
SMILES: CC[C@H]1OC(=O)[C@H](C)[C@@H](O[C@H]2C[C@@](C)(OC)C[C@H](C)O2)[C@H](C)[C@@H](O[C@@H]2O[C@H](C)C[C@H](N(C)C)[C@H]2O)[C@@]2(C)CC(C)=C(O2)[C@H](C)[C@@H](O)[C@H]1C [Example 2, 8,9-anhydro-4"-deoxyerythromycin B-6,9-hemiketal]
Relative Potency [1]: 257,039

EC50 [1]: 17.8 nM
SMILES: CC[C@H]1OC(=O)[C@H](C)[C@@H](O[C@H]2C[C@@](C)(OC)C[C@H](C)O2)[C@H](C)[C@@H](O[C@@H]2O[C@H](C)C[C@H](NC)[C@H]2O)[C@@]2(C)C[C@H](C)C(O2)[C@H](C)[C@@H](O)[C@]1(C)O [Example 10, 9-deoxo-3'-N-desmethyl-4",6-dideoxy-8-epi-6,9-epoxyerythromycin A]
Relative Potency [1]: 79

EC50 [1]: 3.89 nM
SMILES: CC[C@H]1OC(=O)[C@H](C)[C@@H](O[C@H]2C[C@@](C)(OC)C[C@H](C)O2)[C@H](C)[C@@H](O[C@@H]2O[C@H](C)C[C@H](N(C)C)[C@H]2O)[C@@]2(C)CC(C)=C(O2)[C@H](C)[C@@H](O)[C@]1(C)O [Example 1, 8,9-Anhydro-4"-deoxyerythromycin A-6,9-hemiketal]
Relative Potency [1]: 363

EC50 [1]: 0.182 nM
SMILES: CC[C@H]1OC(=O)[C@H](C)[C@@H](O[C@H]2C[C@@](C)(OC)C[C@H](C)O2)[C@H](C)[C@@H](O[C@@H]2O[C@H](C)C[C@H](NC)[C@H]2O)[C@@]2(C)CC(C)=C(O2)[C@H](C)[C@@H](O)[C@]1(C)O [Example 3, 8,9-anhydro-4"-deoxy-3'-N-desmethyl erythromycin A-6,9-hemiketal]
Relative Potency [1]: 7,762
